According to ChEMBL document CHEMBL5131566, “Small-Molecule Thioesters as SARS-CoV-2 Main Protease Inhibitors: Enzyme Inhibition, Structure-Activity Relationships, Antiviral Activity, and X-ray Structure Determination” (J Med Chem, 2022):

Key:
[1] = target: T1, Replicase polyprotein 1ab (Severe acute respiratory syndrome coronavirus 2, UniProt P0DTD1); assay: Inhibition of recombinant his tagged SARS CoV-2 main protease expressed in Escherichia coli BL21 using Boc-Abu-Tle-Leu-Gln-AMC37 as fluorogenic substrate pre-incubated for 5 mins followed by substrate addition measured after 60 mins by FRET based assay
[2] = target: T1, Replicase polyprotein 1ab; assay: Inhibition of recombinant his tagged SARS CoV-2 main protease expressed in Escherichia coli BL21 assessed as inhibition constant using Boc-Abu-Tle-Leu-Gln-AMC37 as fluorogenic substrate pre-incubated for 5 mins followed by substrate addition measured after 60 mins by FRET based assay
[3] = target: Replicase polyprotein 1ab (Severe acute respiratory syndrome coronavirus 2) (UniProt P0DTD1); assay: Time dependent inhibition of recombinant his tagged SARS CoV-2 main protease expressed in Escherichia coli BL21 assessed as ratio of Kinact/Ki using MCA-AVLQSGFR-K(DNP)-K-NH2 as substrate pre-incubated for 5 mins followed by substrate addition measured after 60 mins by FRET based assay
Calu-3 = assay: Cytotoxicity against human Calu-3 cells assessed as reduction in cell […] at 10 uM incubated for 24 hrs by cell titer glo luminescent assay; type: toxicity, cell-based; settings: calu-3, 24 h
Vero 76 = assay: Cytotoxicity against African green monkey Vero 76 cells assessed as reduction in cell […] at 10 uM incubated for 24 hrs by cell titer glo luminescent assay; type: toxicity, cell-based; settings: chlorocebus sabaeus, vero 76, 24 h
[4] = Inhibition of recombinant SARS CoV-1 main protease expressed using MCA-AVLQSGFR-K(DNP)-K-NH2 as substrate incubated for 2 hrs by FRET based assay; parameters: species or system Severe acute respiratory syndrome-related coronavirus
[5] = Inhibition of MERS-CoV -Mpro using Ac-Abu-Tle-Leu-Gln-ACC as substrate incubated for 2 hrs by FRET based assay; parameters: species or system Middle East respiratory syndrome-related coronavirus
[6] = test system: Severe acute respiratory syndrome-related coronavirus; assay: Inhibition of recombinant SARS CoV-1 main protease expressed using MCA-AVLQSGFR-K(DNP)-K-NH2 as substrate at 10 uM incubated for 2 hrs by FRET based assay
SARS-CoV-2 [7] = assay: microbe, parasite or virus in culture; settings: Severe acute respiratory syndrome coronavirus 2, Calu-3
[8] = target: Replicase polyprotein 1ab (Severe acute respiratory syndrome coronavirus 2) (UniProt P0DTD1); assay: Inhibition of recombinant his tagged SARS CoV-2 main protease expressed in Escherichia coli BL21 using Boc-Abu-Tle-Leu-Gln-AMC37 as fluorogenic substrate at 10 uM pre-incubated for 5 mins followed by substrate addition measured after 60 mins by FRET based assay relative to control
SARS-CoV-2 [9] = assay: microbe, parasite or virus in culture; settings: Severe acute respiratory syndrome coronavirus 2, Vero 76
[10] = Stability of the compound assessed as glutathione reactivity by measuring reduction at pH 7.4 by HPLC/MS method; type: physicochemical; settings: buffer
[11] = target: T1, Replicase polyprotein 1ab; assay: Inhibition of full length SARS CoV-2 main protease expressed in Escherichia coli BL21 (DE3) expression system using Mca-AVLQSGFR-K(Dnp)K as substrate by fluorescence method
[12] = target: T1, Replicase polyprotein 1ab; assay: Inhibition of SARS CoV-2 main protease

SMILES | IC50 [1] [nM] | Ki [2] [nM] | Ratio [3] [M⁻¹ s⁻¹] | Activity (Calu-3) | Activity (Vero 76) | IC50 [5] [nM] | other results
Cc1nnc(SC(=O)c2ccc(-c3ccccc3)[nH]2)s1 | 235 | 605 | 5070 | – | – | – | –
Cc1nnc(SC(=O)c2cccc3cc[nH]c23)s1 | 159 | 250 | – | Non-Toxic | Non-Toxic | 196 | IC50 [4]: 2150 nM; inhibition [6]: > 50%; EC50 (SARS-CoV-2 [7]): 437 nM
O=C(Sc1ncccn1)c1cc2ccccc2s1 | 15.5 | – | – | – | – | – | –
Cc1nnc(SC(=O)c2cccc3[nH]ccc23)s1 | 60 | – | – | Non-Toxic | Non-Toxic | 486 | EC50 (SARS-CoV-2 [7]): 367 nM
CC(C)C[C@H](NC(=O)OCc1ccccc1)C(=O)N[C@H](C=O)CC1CCNC1=O (stereo partly drawn) | – | – | – | – | – | 78 | IC50 [4]: 44.6 nM
O=C(Sc1nc2ccccc2s1)c1cc2ccccc2[nH]1 | 117 | 72.6 | – | Non-Toxic | Non-Toxic | – | EC50 (SARS-CoV-2 [7]): 137 nM
CCOc1nnc(SC(=O)c2cc3ccccc3[nH]2)s1 | – | – | – | – | – | – | inhibition [8]: 37%
Cc1cc(C)nc(SC(=O)c2cc3ccccc3[nH]2)n1 | 2030 | 773 | 1790 | – | – | – | –
O=C(Sc1ccc(Cl)cc1)c1cc2ccccc2[nH]1 | – | – | – | – | – | – | inhibition [8]: 4%
COc1ccc2cc([C@H](C)C(=O)Sc3ncccn3)ccc2c1 | 551 | 21 | 33900 | – | – | – | –
O=C(Sc1nc2ccccc2s1)c1ccc(-c2ccccc2)s1 | 125 | 42 | 2100 | – | – | – | –
O=C(Sc1ccc(Cl)cc1Cl)c1cc2ccccc2[nH]1 | – | – | – | – | – | – | inhibition [8]: 9%
O=C(Sc1ncccn1)c1ccc2ccccc2n1 | 20.6 | – | – | Non-Toxic | Non-Toxic | 613 | IC50 [4]: 253 nM; inhibition [6]: > 50%
O=C(Sc1nc2ccccc2s1)c1cc2ccccc2o1 | – | – | – | – | – | – | inhibition [8]: 14%
Cc1nnc(SC(=O)c2cc3ccccc3[nH]2)o1 | 1220 | 119 | 3880 | – | – | – | –
O=C(Sc1nnc(C(F)(F)F)s1)c1ccc(C#Cc2ccccc2)o1 | – | – | – | – | – | – | inhibition [8]: 14%
Cc1ccnc(SC(=O)c2cc3ccccc3[nH]2)n1 | 87.6 | 33.2 | – | Non-Toxic | Non-Toxic | 1310 | IC50 [4]: 1520 nM; inhibition [6]: > 50%; EC50 (SARS-CoV-2 [7]): 734 nM; EC50 (SARS-CoV-2 [9]): 185 nM
CCC(CC)COC(=O)[C@H](C)N[P@](=O)(OC[C@H]1O[C@@](C#N)(c2ccc3c(N)ncnn23)[C@H](O)[C@@H]1O)Oc1ccccc1 | – | – | – | Non-Toxic | Non-Toxic | – | EC50 (SARS-CoV-2 [7]): 79.6 nM; EC50 (SARS-CoV-2 [9]): 2.63 nM
Cc1nnc(SC(=O)c2ccc(C#Cc3ccccc3)o2)s1 | 250 | 34.4 | 5200 | Non-Toxic | Non-Toxic | 378 | IC50 [4]: 2760 nM; inhibition [6]: > 50%
O=C(Sc1nc2ccccc2s1)c1ccc2ccccc2n1 | 88.9 | 51 | 5450 | – | – | – | Stability [10]: Stable
Cc1nnc(SC(=O)c2cc3ccccc3n2C)s1 | 349 | 295 | – | Non-Toxic | Non-Toxic | 223 | EC50 (SARS-CoV-2 [7]): 659 nM; EC50 (SARS-CoV-2 [9]): 4.58 nM
Cc1nnc(SC(=O)c2cc3ccccc3o2)s1 | 316 | 35.7 | 5190 | – | – | – | –
Cc1nnc(SC(=O)c2ccc(-c3ccccc3)o2)s1 | 34.4 | – | – | Non-Toxic | Non-Toxic | – | EC50 (SARS-CoV-2 [7]): 100 nM

SMILES | IC50 [1] [nM] | Ki [2] [nM] | Ratio [3] [M⁻¹ s⁻¹] | Activity (Calu-3) | Activity (Vero 76) | IC50 [5] [nM] | other results
Cc1nnc(SC(=O)c2ccc(Br)o2)s1 | 481 | – | – | – | – | – | –
Cc1nnc(SC(=O)c2cc3ccccc3[nH]2)s1 | 624 | – | – | – | – | – | –
O=C(Sc1nc2ccccc2s1)c1cc2ccccc2s1 | 190 | 161 | 2000 | – | – | – | –
O=C(Sc1nc2ccccc2s1)c1ccc(-c2ccccc2)o1 | 166 | 612 | 515 | – | – | – | –
O=C(Sc1ncccn1)c1cc2ccccc2[nH]1 | 11.4 | 14.1 | – | Non-Toxic | Non-Toxic | 303 | IC50 [4]: 60 nM; inhibition [6]: > 50%; EC50 (SARS-CoV-2 [7]): 111 nM
Cc1cc(C)nc(SC(=O)c2ccc(C#Cc3ccccc3)o2)n1 | 288 | – | – | – | – | – | –
O=C(NCCN1C(=O)C=CC1=O)c1cc2ccccc2[nH]1 | – | – | – | – | – | – | IC50 [11]: 2080 nM
Cc1nnc(SC(=O)c2ccc3ccccc3c2)s1 | 454 | 21.1 | – | Non-Toxic | Non-Toxic | 526 | IC50 [4]: 1650 nM; inhibition [6]: > 50%; EC50 (SARS-CoV-2 [7]): 45 nM
CCOc1ccc2cc(C(=O)Sc3nccc(C)n3)[nH]c2c1 | – | – | – | – | – | – | inhibition [8]: -8%
O=C(Sc1ncccn1)c1ccc(-c2ccccc2)s1 | 13.7 | – | – | – | – | – | –
Oc1ccc2ccccc2c1SSc1c(O)ccc2ccccc12 | – | – | – | – | – | – | IC50 [11]: 2350 nM
O=C(Sc1nncs1)c1cc2ccccc2[nH]1 | 143 | 74.4 | – | Non-Toxic | Non-Toxic | 535 | IC50 [4]: 3210 nM; inhibition [6]: > 50%; EC50 (SARS-CoV-2 [7]): 562 nM; EC50 (SARS-CoV-2 [9]): 642 nM
S=C(SSC(=S)N1CCOCC1)N1CCOCC1 | – | – | – | – | – | – | IC50 [12]: 4.03 µM
O=C(Sc1ncccn1)c1ccc(-c2ccccc2)o1 | 18.1 | – | – | Non-Toxic | Non-Toxic | 79 | –
O=C(Sc1nc2ccccc2s1)c1ccc(-c2ccc(Br)cc2)o1 | 255 | 13 | 1490 | – | – | – | –
O=C(Sc1nnc(C(F)(F)F)s1)c1cc2ccccc2[nH]1 | – | – | – | – | – | – | inhibition [8]: 26%
Cc1nnc(SC(=O)c2ccc3cc[nH]c3c2)s1 | 54.7 | 186 | 5850 | Non-Toxic | Non-Toxic | 271 | –
CSc1nnc(SC(=O)c2cc3ccccc3[nH]2)s1 | 91.4 | 43 | 11800 | Non-Toxic | Non-Toxic | 1130 | –
O=C(Sc1ncccn1)c1ccc(-c2ccc(Br)cc2)s1 | 14.4 | – | – | Non-Toxic | Non-Toxic | – | –
COc1nnc(SC(=O)c2cc3ccccc3[nH]2)s1 | 147 | 84.4 | – | Non-Toxic | Non-Toxic | 503 | EC50 (SARS-CoV-2 [7]): 38.3 nM
Cc1nnc(SC(=O)c2cc3ccccc3[nH]2)n1C(=O)c1cc2ccccc2[nH]1 | 281 | 77.3 | 12200 | – | – | – | –
Cc1nnc(SC(=O)c2ccc3[nH]ccc3c2)s1 | 72.3 | 393 | 3370 | Non-Toxic | Non-Toxic | 945 | IC50 [4]: 7350 nM
O=C(Oc1cncc(Cl)c1)c1cccc2[nH]ccc12 | – | – | – | Non-Toxic | Non-Toxic | – | EC50 (SARS-CoV-2 [7]): 28.5 nM; EC50 (SARS-CoV-2 [9]): 9.59 nM
